This assay deals with T1, 5-lipoxygenase (Mus musculus, UniProt P48999).
T1 construct: A cell suspension containing peritoneal cells of male mice 8-10 weeks old was obtained; endogenous in cells; host or cells: mouse peritoneal macrophages (male mice 8-10 weeks old), zymosan-stimulated
T1 sequence (P48999 1-674): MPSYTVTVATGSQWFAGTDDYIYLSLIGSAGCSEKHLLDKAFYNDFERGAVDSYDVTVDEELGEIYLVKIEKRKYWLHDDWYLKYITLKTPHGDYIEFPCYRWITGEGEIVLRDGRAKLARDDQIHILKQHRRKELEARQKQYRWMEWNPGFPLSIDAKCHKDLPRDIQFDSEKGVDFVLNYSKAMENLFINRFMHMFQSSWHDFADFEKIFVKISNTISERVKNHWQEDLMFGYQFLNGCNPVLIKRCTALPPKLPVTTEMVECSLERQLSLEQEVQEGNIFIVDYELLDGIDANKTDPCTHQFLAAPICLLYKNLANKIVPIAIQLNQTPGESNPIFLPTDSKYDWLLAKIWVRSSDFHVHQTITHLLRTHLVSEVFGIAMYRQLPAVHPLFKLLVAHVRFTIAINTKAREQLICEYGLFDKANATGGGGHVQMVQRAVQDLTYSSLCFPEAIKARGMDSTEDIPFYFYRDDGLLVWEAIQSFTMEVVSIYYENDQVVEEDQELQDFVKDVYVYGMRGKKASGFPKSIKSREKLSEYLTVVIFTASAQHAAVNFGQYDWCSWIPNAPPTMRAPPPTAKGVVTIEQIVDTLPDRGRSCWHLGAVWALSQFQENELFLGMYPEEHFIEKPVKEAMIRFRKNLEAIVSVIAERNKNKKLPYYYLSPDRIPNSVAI
The assay is described as follows: 5-lipoxygenase inhibition: release of LTC4 from zymosan-stimulated mouse peritoneal macrophage cells. It counts as cell-based. The conditions noted are these: 10^-5 mol/l, read-out: In vitro % inhibition effect on the release of LTC4. From the text: 5. In vitro determination of cyclooxygenase inhibition and 5-lipoxygenase inhibition.
After activation of the cell, arachidonic acid contained in cell membranes is metabolized in two ways. Leukotrienes, inter alia leukotriene C4, are formed under the action of the enzyme 5-lipoxygenase (5-LO), and prostanoids are formed under the action of the enzyme cyclooxygenase (CO). In in vitro systems, the metabolites are secreted from the cell.
To investigate the cyclooxygenase-inhibiting and the 5-lipoxygenase-inhibiting properties, the inhibitory effect of the test substances on the biosynthesis of the arachidonic acid derivatives leukotriene C4 (LTC4) and 6-ketoprostaglandin F1 α (6-keto-PGF1 α) is determined in vitro on mouse peritoneal macrophage cells. This was accomplished by determining the LTC4 and 6-keto-PGF1 α contents in a culture medium of mouse peritoneal macrophage cells by zymosan stimulation as described by Scott et al. (J. Exp. Med. 152 (1980), 324-335) and by Fradin et al. (Prostaglandins, 33 (1987), 579-589).
A cell suspension containing peritoneal cells of male mice 8-10 weeks old was obtained in a known manner. A commercially available cell culture solution (RPMI 1640 from Messrs. Gibco) was used to which heparin (I0 international units/ml) and antibiotics were added according to the recipe of Bonney et al. (Biochem. J. 176 (1978) 422-433). The cell suspension was adjusted to a cell concentration of 10^6 cells per ml and distributed uniformly on titer plates containing […] (wells). These were kept for two hours in a humidified incubator filled with air enriched with 7% CO2. Cells not adhering to the titer cell walls were then removed by washing. The remaining macrophage cells adhering to the walls were incubated for about 12 hours in a suspension medium to which 0.1% bovine serum albumin (BSA) were added. The suspension medium was then replaced by a Hanks balanced salt solution (HBSS) containing 10 mM Hepes (hydroxyethyl-piperazinoethanesulfonic acid), to which a 0.1% strength solution of the test substances in aqueous, 1% strength dimethylformamide or only the solvent had been added. After 15 minutes the arachidonic acid metabolism was stimulated by adding 10 particles of zymosan (=glycoproteinmixture, isolated from cell walls of beer yeast, Saccharomyces cerevisiae, manufactured by Sigma Chemical Co., Munich) per titer cell. After 2 hours, samples of each of the supernatant liquids were investigated for their 6-keto-PGF1 α and LTC4 contents by means of an enzyme immunoassay (EIA) carried out by the method of Pradelles et al. (Analytical Chem. 57 (1985), 1170-1173). The determination of LTC4 and the determination of 6-keto-PGF1 α were each carried out in comparison with a comparative scale on suitable dilutions of the samples (1:50 to 1:250 for the LTC4 determination and 1:250 to 1:1250 for the 6-keto-PGF1 α determination). To determine the inhibitory effect of a 10^-5 molar concentration of the compounds, the amount of reference eicosanoids was determined and the inhibitory effect was calculated from this in % inhibition compared to the measurements of the zymosan controls.
A word on the inhibition: it is the relative decrease from the control value, in per cent. For the compound `Cc1ccnc(N2CCN(CCc3c(C)n4c5c(cccc35)CCC4)CC2)c1` [Example 1, 5,6-Dihydro-2-methyl-1-{2-[4-(4-methylpyridin-2-yl)piperazin-1-yl]ethyl}-4H-pyrrolo[3,2,1-ij]quinoline], the inhibition at 10 µM turned out to be 24%.
On to `Cc1ccnc(N2CCN(CCc3c(C)n4c5c(cccc35)CCC4c3ccccc3)CC2)c1` (centres unmarked) [Example 3, 5,6-dihydro-2-methyl-4-phenyl-1-{2-[4-(4-methylpyridine-2-yl)piperazin-1-yl]-ethyl}-4H-pyrrolo[3,2,1-ij]quinoline], for which the inhibition at 10 µM was 37%.
Take `CCCCCCCC1CCc2cccc3c(CCN4CCN(c5cc(C)ccn5)CC4)c(C)n1c23` (centres unmarked) [Example 4, 4-n-heptyl-5,6-dihydro-2-methyl-1-{2-[4-(4-methylpyridin-2-yl)piperazin-1-yl]ethyl}-4H-pyrrolo[3,2,1-ij]-quinoline]: the inhibition at 10 µM amounted to 44%.
For `COc1ccc(-c2c(CCN3CCN(c4cc(C)ccn4)CC3)c3cccc4c3n2CCC4)cc1` [Example 7, 2-(4-methoxy-phenyl)-1-{2-[4-(4-methylpyridin-2-yl)piperazin-1-yl]ethyl}-5,6-dihydro-4H-pyrrolo[3,2,1-ij]quinoline] the value was 56%; for `Cc1ccnc(N2CCN(CCc3c(-c4ccc(O)cc4)n4c5c(cccc35)CCC4)CC2)c1` [Example 8, 2-(4-hydroxyphenyl)-1-{2-[4-(4-methylpyridin-2-yl)piperazin-1-yl]ethyl}-5,6-dihydro-4H-pyrrolo[3,2,1-ij]quinoline], 99%; for `Cc1ccnc(N2CCN(CCc3c(C)n4c5c(cc(Br)cc35)CCC4)CC2)c1` [Example 9, 8-Bromo-2-methyl-1-{2-[4-(4-methylpyridin-2-yl)piperazin-1-yl]ethyl}-5,6-dihydro-4H-pyrrolo[3,2,1-ij]quinoline], 62%.
The result for `Cc1ccnc(N2CCN(CCc3c(-c4ccc(OCCCCO)cc4)n4c5c(cccc35)CCC4)CC2)c1` [Example 12, 2-[4-(4-Hydroxybutyloxy)-phenyl]-1-{2-[4-(4-methylpyridin-2-yl)piperazin-1-yl]ethyl}-5,6-dihydro-4H-pyrrolo[3,2,1-ij]quinoline] reads 97%; that for `CCc1c(C(O)CN2CCN(c3cc(C)ccn3)CC2)c2cccc3c2n1CCC3` (centres unmarked) [Example 14, 2-Ethyl-5,6-dihydro-1-{2-[4-(4-methylpyridin-2-yl)piperazin-1-yl]-1-hydroxyethyl}-4H-pyrrolo[3,2,1-ij]quinoline], 55%.
For `Cc1ccnc(N2CCN(CCc3c(CO)n4c5c(cccc35)CCC4)CC2)c1` [Example 16, 5,6-dihydro-2-hydroxymethyl-1-{2-[4-(4-methylpyridin-2-yl)piperazin-1-yl]ethyl}-4H-pyrrolo[3,2,1-ij]quinoline] the value was 17%; for `Cc1ccnc(N2CCN(CCc3c(C)n4c5c(cc(C(O)C(C)C)cc35)CCC4)CC2)c1` (centres unmarked) [Example 19, 5,6-Dihydro-8-(1-hydroxy-2-methylpropyl)-2-methyl-1-{2-[4-(4-methylpyridin-2-yl)piperazin-1-yl]ethyl}-4H-pyrrolo-[3,2,1-ij]quinoline], 55%.
As to `Cc1ccnc(N2CCN(CCc3c(C)n4c5c(cc(N)cc35)CCC4)CC2)c1` [Example 20, 8-Amino-5,6-dihydro-2-methyl-1-{2-[4-(4-methylpyridin-2-yl)piperazin-1-yl]ethyl}-4H-pyrrolo[3,2,1-ij]quinoline], the inhibition at 10 µM is 0%.
For `Cc1ccnc(N2CCN(CCc3c(C)n4c5c(cc(CC(C)C)cc35)CCC4)CC2)c1` [Example 21, 5,6-Dihydro-2-methyl-8-(2-methylpropyl)-1-{2-[4-(4-methylpyridin-2-yl)piperazin-1-yl]ethyl}-4H-pyrrolo[3,2,1-ij]quinoline], the inhibition at 10 µM came out at 95%.
For `CCCCC1CCc2cc(C(=O)C(C)C)cc3c(CCN4CCN(c5cc(C)ccn5)CC4)c(C)n1c23` (centres unmarked) [Example 23, 4-n-Butyl-5,6-dihydro-8-(2-methyl-1-oxopropyl)-2-methyl-1-{2-[4-(4-methylpyridin-2-yl)piperazin-1-yl]ethyl}-4H-pyrrolo[3,2,1-ij]quinoline] the value was 94%; for `Cc1ccnc(N2CCN(CCc3c(C)n4c5c(cc(NC(=O)c6ccccc6)cc35)CCC4)CC2)c1` [Example 25, 8-Benzoylamino-5,6-dihydro-2-methyl-1-{2-[4-(4-methylpyridin-2-yl)piperazin-1-yl]-ethyl}-4H-pyrrolo[3,2,1-ij]quinoline], 69%.
The result for `CC(C)=Cc1cc2c3c(c1)c(CCN1CCN(c4cc(C)ccn4)CC1)c(C)n3CCC2` [Example 26, 5,6-Dihydro-2-methyl-8-(2-methylprop-1-enyl)-1-{2-[4-(4-methylpyridin-2-yl)piperazin-1-yl]ethyl}-4H-pyrrolo[3,2,1-ij]quinoline] reads 89%.
For `Cc1ccnc(N2CCN(CCc3c(C)n4c5c(cc(C(=O)C(C)C)cc35)CCC4)CC2)c1` [Example 27, 5,6-dihydro-2-methyl-8-(2-methyl-1-oxopropyl)-1-{2-[4-(4-methylpyridin-2-yl)piperazin-1-yl]ethyl}-4H-pyrrolo-[3,2,1-ij]quinoline] the value was 61%; for `Cc1ccnc(N2CCN(CCc3c(C)n4c5c(cccc35)CC4C)CC2)c1` (centres unmarked) [Example 33], 4%; for `Cc1ccnc(N2CCN(CCc3c(C)n4c5c(ccc(Cl)c35)OCC4)CC2)c1` [Example 35], 75%.
As to `Cc1c(CCN2CCN(c3ccccn3)CC2)c2cccc3c2n1CCC3` [Example 37], the inhibition at 10 µM was 13%.
For `Cc1ccc(N2CCN(CCc3c(C)n4c5c(cccc35)CCC4)CC2)nc1` [Example 42] the value was 15%; for `Cc1c(CCN2CCN(c3ccc(Br)cn3)CC2)c2cccc3c2n1CCC3` [Example 43], 24%.
Take `Cc1cc2c3c(c1)c(CCN1CCC(C(=O)c4ccc(F)cc4)CC1)c(C)n3CCC2` [Example 55]: the inhibition at 10 µM was determined as 45%.
For `COc1ccc(C2CCc3cccc4c(CCN5CCN(c6cc(C)ccn6)CC5)c(C)n2c34)cc1` (centres unmarked) [Example 59] the value was 80%.
The result for `Cc1ccnc(N2CCN(CCc3c(C)n4c5c(cccc35)CCC4c3ccc(O)cc3)CC2)c1` (centres unmarked) [Example 61] reads 98%.
For `C=CCCC1CCc2cccc3c(CCN4CCN(c5cc(C)ccn5)CC4)c(C)n1c23` (centres unmarked) [Example 62], the inhibition at 10 µM came to 94%.
The result for `CCCCC1CCc2cc(OC)cc3c(CCN4CCN(c5cc(C)ccn5)CC4)c(C)n1c23` (centres unmarked) [Example 63] reads 98%; that for `COc1ccc(C2CCc3cc(OC)cc4c(CCN5CCN(c6cc(C)ccn6)CC5)c(C)n2c34)cc1` (centres unmarked) [Example 65], 89%.
Regarding `Cc1ccnc(N2CCN(CCc3c(C)n4c5c(cc(C(=O)c6ccccc6)cc35)CCC4)CC2)c1` [Example 66], the inhibition at 10 µM was determined as 33%.
The result for `CC(=O)c1cc2c3c(c1)c(CCN1CCN(c4cc(C)ccn4)CC1)c(C)n3CCC2` [Example 67] reads 66%.

(Values after patent US5324725A, “7-fused 2-(piperazinoalkyl) indole derivatives, intermediates and compositions thereof” (Kali-Chemie Pharma GmbH, priority 1991, dated 1994).)
